The record followed here is the Deep4Chem optical property database.

This data set can be described thus: solvent given as SMILES.

The structures appear in SMILES notation.

In the case of `CCOC(=O)c1ccccc1-c1c2ccc(=[N+](CC)CC)cc-2oc2cc(N(CC)CC)ccc12`, the fluorescence lifetime turned out to be 1.69 ns (in CC#N), 2.94 ns (in CCO), 2.16 ns (in CN(C)C=O) and 1.74 ns (in O).

Compound `c1ccc(-c2ccc(-c3ccc(-c4cc(-c5ccc(-c6ccc(-c7ccccc7)cc6)cc5)cc(-c5ccc(-c6ccc(-c7ccccc7)cc6)cc5)c4)cc3)cc2)cc1` yielded a fluorescence lifetime (in C1COCCO1) of 1.05 ns.

Take `CCOC(=O)C1(O)c2cc3ccc4cccc5ccc(c2C(=O)N1C(C)(C)C)c3c45` (configuration not stated): the fluorescence lifetime (in ClC(Cl)Cl) stood at 5.11 ns.

On to `c1ccc(Nc2nc(Nc3ccccc3)nc(Nc3ccc4ccc5cccc6ccc3c4c56)n2)cc1`, for which the fluorescence lifetime (in CCCCCCC) was determined as 4.3 ns.

On to `CC1=[N+]2C(=C(c3ccc(N4CCOCC4)cc3)c3ccc(C)n3[B-]2(F)F)C=C1`, for which the fluorescence lifetime was determined as 2.15 ns (in C1CCCCC1) and 3.12 ns (in Cc1ccccc1).

Take `CN(C)c1ccc2c(-c3ccc(N)cc3C(=O)[O-])c3ccc(=[N+](C)C)cc-3oc2c1`: the fluorescence lifetime is 3.19 ns (in CCO) and 2.23 ns (in O).

Under “in ClC(Cl)Cl”, `O=C1c2ccccc2-c2ccc(N3CCOCC3)c3cccc1c23` returned a fluorescence lifetime of 10.9 ns.

On to `CN(C)c1ccc2ccc3oc(=O)c(-c4ccccc4)nc3c2c1`, for which, under “in c1ccccc1”, the fluorescence lifetime was 7.2 ns.

In the case of `COc1ccc2cc(/C=C/c3ccccc3)c(=O)oc2c1`, the fluorescence lifetime (in CC#N) is 2.75 ns.

Turning to `COC(=O)c1ccccc1-c1c2ccc(=[NH2+])cc-2oc2cc(N)ccc12`, the fluorescence lifetime by setting is: (in CC#N) 4.1 ns; (in CCO) 3.99 ns; (in CN(C)C=O) 3.74 ns; (in O) 4.2 ns.

Regarding `CC(C)(C)c1ccc2c(c1)c1cc(C(C)(C)C)ccc1n2-c1ccc2c(c1)C(=O)c1ccc(-n3c4ccc(C(C)(C)C)cc4c4cc(C(C)(C)C)ccc43)cc1C2=O`, the fluorescence lifetime is, setting by setting: (in Cc1ccccc1) 7.5 ns; (in c1ccc2c(c1)c1ccccc1n2-c1ccc(-c2ccc(-n3c4ccccc4c4ccccc43)cc2)cc1) 10.4 ns.

In the case of `C=CCOc1nnc(OCCC(F)(F)C(F)(F)C(F)(F)C(F)(F)C(F)(F)C(F)(F)F)nn1`, the fluorescence lifetime by setting is: (in ClCCl) 63.8 ns; (in OCC(F)(F)F) 8.7 ns.

Regarding `CC[Si](CC)(CC)Oc1cccc(O[Si](CC)(CC)CC)c1-c1c2ccccc2c(-c2c(O[Si](CC)(CC)CC)cccc2O[Si](CC)(CC)CC)c2ccccc12`, the fluorescence lifetime (in C1CCCCC1) was determined as 7.8 ns.

Turning to `Cc1ccc(C2=C3C=CC=[N+]3[B-](F)(F)n3cccc32)cc1`, the fluorescence lifetime by setting is: (in C1CCCCC1) 0.34 ns; (in CC#N) 0.196 ns; (in CCO) 0.253 ns; (in CCOC(C)=O) 0.237 ns; (in CO) 0.197 ns; (in OCC(F)(F)F) 0.323 ns.

In the case of `Cc1ccc2c(c1)C(c1ccccc1)(c1ccccc1)c1cc(C)ccc1N2c1ccc2c(c1)N(c1ccccc1)c1ccccc1B2c1c(C(C)C)cc(C(C)C)cc1C(C)C`, the fluorescence lifetime is 5.6 ns (in Cc1ccccc1) and 8.7 ns (in O=P(c1ccccc1)(c1ccccc1)c1ccc2oc3ccc(P(=O)(c4ccccc4)c4ccccc4)cc3c2c1).

For `CCOC(=O)CCCCCn1c2ccccc2c(=O)c2cc(I)ccc21`, under “in CO”, the fluorescence lifetime is 1.7 ns.

Where the note is “in ClCCl”, `Cc1ccc(N(c2ccc(C)cc2)c2ccc3c4cccc5c(N(c6ccc(C)cc6)c6ccc(C)cc6)ccc(c6cccc2c63)c54)cc1` displayed a fluorescence lifetime of 6.25 ns.

For the compound `C(=C\c1nc(-c2ccccc2)c2ccccn12)/c1nc(-c2ccccc2)c2ccccn12`, the fluorescence lifetime (in CC#N) was 1 ns.

On to `c1cnc2c(c1)c1nc(-c3ccc(-c4nc5c6cccnc6c6ncccc6c5[nH]4)cc3)[nH]c1c1cccnc12`, for which, under “in CS(C)=O”, the fluorescence lifetime is 1.36 ns.

`C(#Cc1ccccc1)C(C#Cc1ccccc1)=Cc1ccc(-c2ccc(C=C(C#Cc3ccccc3)C#Cc3ccccc3)cc2)cc1` displayed a fluorescence lifetime (in ClC(Cl)Cl) of 0.7 ns.

The compound `CCCCn1c(-c2ccc(-c3nnc(-c4ccccc4)o3)cc2)nc(-c2ccccc2)c1-c1ccccc1` registered a fluorescence lifetime (in ClCCl) of 1.76 ns.
